Data as given in ChEMBL document CHEMBL2169878 (J Med Chem, 2012).
The source made the active and inactive calls. The rule behind the calls is not given here.

Assays:
[1] = tested on: Plasmodium falciparum; assay: Antiplasmodial activity against chloroquine-sensitive Plasmodium falciparum D10 infected in human RBC after 72 hrs by parasite lactate dehydrogenase assay; assay type: functional, organism-based; conditions: D10, 72 h
[2] = tested on: Plasmodium falciparum; assay: Antiplasmodial activity against chloroquine-resistant Plasmodium falciparum W2 infected in human RBC after 72 hrs by parasite lactate dehydrogenase assay; assay type: functional, organism-based; conditions: W2, 72 h
[3] = tested on: Plasmodium falciparum; assay: Resistance ratio of IC50 for chloroquine-resistant Plasmodium falciparum W2 to IC50 for chloroquine-sensitive Plasmodium falciparum D10; assay type: functional
[4] = tested on: Plasmodium falciparum; assay: Antiplasmodial activity against chloroquine-sensitive Plasmodium falciparum NF54 infected in human erythrocytes assessed as inhibition of [3H]hypoxanthine incorporation incubated for 48 hrs prior to [3H]hypoxanthine addition measured after 48 hrs by liquid scintillation counting; assay type: functional, organism-based
[5] = tested on: Plasmodium falciparum; assay: Antiplasmodial activity against chloroquine-resistant Plasmodium falciparum K1 infected in human erythrocytes assessed as inhibition of [3H]hypoxanthine incorporation incubated for 48 hrs prior to [3H]hypoxanthine addition measured after 48 hrs by liquid scintillation counting; assay type: functional, organism-based
[6] = target: T1, Chloroquine resistance transporter (Plasmodium falciparum) (UniProt Q9N623); assay: Inhibition of chloroquine-resistant Plasmodium falciparum Dd2 CRT expressed in Xenopus laevis oocyte assessed as inhibition of [3H]chloroquine uptake at 100 uM measured from 1 to 2 hrs
T1 sequence (whole entry): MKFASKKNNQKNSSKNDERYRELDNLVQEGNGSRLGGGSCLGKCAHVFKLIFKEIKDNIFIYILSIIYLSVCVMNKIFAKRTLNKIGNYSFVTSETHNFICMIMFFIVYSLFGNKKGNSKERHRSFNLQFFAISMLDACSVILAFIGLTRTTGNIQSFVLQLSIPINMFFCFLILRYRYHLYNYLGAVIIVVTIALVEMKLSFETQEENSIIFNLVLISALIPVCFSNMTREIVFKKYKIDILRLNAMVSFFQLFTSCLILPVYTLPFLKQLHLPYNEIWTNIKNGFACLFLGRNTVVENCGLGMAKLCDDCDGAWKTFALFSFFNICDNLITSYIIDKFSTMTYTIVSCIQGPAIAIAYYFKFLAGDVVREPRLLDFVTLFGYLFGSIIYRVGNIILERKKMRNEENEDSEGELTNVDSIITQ

[7] = tested on: Salmonella typhimurium; assay: Mutagenicity against Salmonella typhimurium TA98 assessed as revertants at 3 uM incubated for 90 mins followed by drug washout measured after 2 days relative to positive control; assay type: toxicity, organism-based; conditions: salmonella enterica subsp. enterica serovar typhimurium, 1.5 h
[8] = tested on: Salmonella typhimurium; assay: Mutagenicity against Salmonella typhimurium TA98 assessed as revertants at 6 uM incubated for 90 mins followed by drug washout measured after 2 days relative to positive control; assay type: toxicity, organism-based; conditions: salmonella enterica subsp. enterica serovar typhimurium, 1.5 h
[9] = tested on: Salmonella typhimurium; assay: Mutagenicity against Salmonella typhimurium TA98 assessed as revertants at 12 uM incubated for 90 mins followed by drug washout measured after 2 days relative to positive control; assay type: toxicity, organism-based; conditions: salmonella enterica subsp. enterica serovar typhimurium
[10] = tested on: Salmonella typhimurium; assay: Mutagenicity against Salmonella typhimurium TA98 assessed as revertants at 24 uM incubated for 90 mins followed by drug washout measured after 2 days relative to positive control; assay type: toxicity, organism-based; conditions: salmonella enterica subsp. enterica serovar typhimurium, 1.5 h
[11] = tested on: Salmonella typhimurium; assay: Mutagenicity against Salmonella typhimurium TA98 assessed as revertants at 48 uM incubated for 90 mins followed by drug washout measured after 2 days relative to positive control; assay type: toxicity, organism-based; conditions: salmonella enterica subsp. enterica serovar typhimurium, 1.5 h
[12] = tested on: Salmonella typhimurium; assay: Mutagenicity against Salmonella typhimurium TA100 assessed as revertants at 1.5 uM incubated for 90 mins followed by drug washout measured after 2 days relative to positive control; assay type: toxicity, organism-based; conditions: salmonella enterica subsp. enterica serovar typhimurium, 1.5 h
[13] = tested on: Salmonella typhimurium; assay: Mutagenicity against Salmonella typhimurium TA100 assessed as revertants at 3 uM incubated for 90 mins followed by drug washout measured after 2 days relative to positive control; assay type: toxicity, organism-based; conditions: salmonella enterica subsp. enterica serovar typhimurium, 1.5 h
[14] = tested on: Salmonella typhimurium; assay: Mutagenicity against Salmonella typhimurium TA100 assessed as revertants at 6 uM incubated for 90 mins followed by drug washout measured after 2 days relative to positive control; assay type: toxicity, organism-based; conditions: salmonella enterica subsp. enterica serovar typhimurium, 1.5 h
[15] = tested on: Salmonella typhimurium; assay: Mutagenicity against Salmonella typhimurium TA100 assessed as revertants at 12 uM incubated for 90 mins followed by drug washout measured after 2 days relative to positive control; assay type: toxicity, organism-based; conditions: salmonella enterica subsp. enterica serovar typhimurium
[16] = tested on: Salmonella typhimurium; assay: Mutagenicity against Salmonella typhimurium TA100 assessed as revertants at 24 uM incubated for 90 mins followed by drug washout measured after 2 days relative to positive control; assay type: toxicity, organism-based; conditions: salmonella enterica subsp. enterica serovar typhimurium
[17] = tested on: Salmonella typhimurium; assay: Mutagenicity against Salmonella typhimurium TA100 assessed as revertants at 48 uM incubated for 90 mins followed by drug washout measured after 2 days relative to positive control; assay type: toxicity, organism-based; conditions: salmonella enterica subsp. enterica serovar typhimurium
[18] = Cytotoxicity against mouse NIH3T3 cells after 24 hrs by neutral red dye uptake assay; assay type: cell-based; conditions: read-out: TC50
[19] = Cytotoxicity against human HepG2 cells after 24 hrs by neutral red dye uptake assay; assay type: cell-based; conditions: read-out: TC50
[20] = tested on: Salmonella typhimurium; assay: Mutagenicity against Salmonella typhimurium TA98 assessed as revertants at 1.5 uM incubated for 90 mins followed by drug washout measured after 2 days relative to positive control; assay type: toxicity, organism-based; conditions: salmonella enterica subsp. enterica serovar typhimurium, 1.5 h

Structure (SMILES) | IC50 [1] | IC50 [2] | IC50 [4] | IC50 [5] | other results
Clc1ccc(C(Nc2ccnc3cc(Cl)ccc23)c2ccc(CN3CCN(Cc4ccccc4)CC3)cc2)cc1 (racemic) | 0.163 µM | 0.79 µM | – | – | Ratio IC50 [3]: 4.8
Clc1cccc(C(Nc2ccnc3cc(Cl)ccc23)c2ccc(CN3CCOCC3)c(Cl)c2)c1 (racemic) | 0.442 µM | 0.277 µM | 0.047 µM | 0.107 µM | –
COc1ccc2nccc(NC(c3ccc(Cl)cc3)c3ccc(CN4CCCC4)c(Cl)c3)c2c1 (racemic) | 0.024 µM | 0.076 µM | – | – | –
COc1ccc(CCN(C)CCCC(C#N)(c2ccc(OC)c(OC)c2)C(C)C)cc1OC (stereo not drawn) | – | – | – | – | inhibition [6]: 74%
FC(F)(F)c1ccc2c(NC(c3cccc(Cl)c3)c3ccc(CN4CCCC4)c(Cl)c3)ccnc2c1 (racemic) | 0.074 µM | 0.111 µM | 0.034 µM | 0.046 µM | –
COc1ccc2nccc(NC(c3cccc(Cl)c3)c3ccc(CN4CCCC4)c(Cl)c3)c2c1 (racemic) | 0.056 µM | 0.09 µM | 0.027 µM | 0.034 µM | Activity [7]: 0%; Activity [8]: 0%; Activity [9]: 3%; Activity [10]: 3%; Activity [11]: 3%; Activity [12]: 3%; Activity [13]: 4%; Activity [14]: 4%; Activity [15]: 4%; Activity [16]: 5%; Activity [17]: 10%; CC50 at 24 h [18]: 24 µM; CC50 at 24 h [19]: 12 µM; Activity [20]: 3%
Fc1cc(C(Nc2ccnc3cc(Cl)ccc23)c2cccc(Cl)c2)ccc1CN1CCCC1 (racemic) | 0.009 µM | 0.025 µM | – | – | inhibition [6]: 70%
Clc1ccccc1C(c1ccccc1)(c1ccccc1)n1ccnc1 [CLOTRIMAZOLE] | – | – | – | – | CC50 at 24 h [18]: > 48 µM; CC50 at 24 h [19]: > 48 µM
Clc1cccc(C(Nc2ccnc3cc(Cl)ccc23)c2ccc(CN3CCN(c4ccnc5cc(Cl)ccc45)CC3)c(Cl)c2)c1 (racemic) | 0.104 µM | 0.058 µM | 0.083 µM | 0.01 µM | –
COc1cc(C(Nc2ccnc3cc(Cl)ccc23)c2ccc(Cl)cc2)ccc1CN1CCCC1 (racemic) | 0.031 µM | 0.048 µM | – | – | –
Clc1ccc(C(c2ccccc2)(c2ccc(CN3CCCC3)cc2)n2ccnc2)cc1 (racemic) | – | – | – | – | inhibition [6]: Active
COc1ccc2nccc(NC(c3cccc(Cl)c3)c3ccc(CN4CCOCC4)c(Cl)c3)c2c1 (racemic) | 0.198 µM | 0.229 µM | 0.081 µM | 0.114 µM | –
